Here are results for three sequences from patent US20160251403A1, “PEPTIDE COMBINATIONS AND USES THEREOF IN TREATING DUST MITE ALLERGY” (ALK-ABELLO A/S, priority 2013, published 2016).

One series concerns the target DRB1_1201 (Homo sapiens, UniProt P01903+P01911, A100R/A169T/D57E/D86V/F55L/H45Y/K41T/L162R/M171V/P40S/Q125H/Q178H/Q39Y/Q99D/R42G/S66L/T262R/V114A/V67L/W38E/Y59H/Y61H/Y89S). Briefly: Competitive MHC class II binding assay, DRB1_1201.
The next series addresses DRB1_0301 (Homo sapiens, UniProt P01903+P01911, A100K/A102G/A103R/A169T/F55Y/I96L/K41T/L162R/M171V/P40S/Q125H/Q178H/Q39Y/R42S/S66N/T106N/T262R/W38E/Y61H). Put plainly: Competitive MHC class II binding assay, DRB1_0301.
Another series addresses DRB1_0101 (Homo sapiens, UniProt P01903+P01911, A100R/D57E/F55L/F60I/F76Y/I96L/L162R/M171V/P40L/Q125E/R42F/V115G/Y59C). Briefly: Competitive MHC class II binding assay, DRB1_0101.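 Note: competition against a radiolabeled probe peptide (0.1–1 nM) for purified HLA class II protein over 2–4 days, bound counts read after antibody capture, six competitor levels across 100,000-fold.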
A further series has as its target DRB4_0101 (Homo sapiens, UniProt P01903+P13762, G164S). Put plainly: Competitive MHC class II binding assay, DRB4_0101.
In another series the target is DRB1_1302 (Homo sapiens, UniProt P01903+P01911, A100E/A169T/K41T/L162R/M171V/P40S/Q125H/Q178H/Q39Y/Q99D/R42S/S66N/T262R/V115G/W38E/Y61H). Briefly: Competitive MHC class II binding assay, DRB1_1302.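 Note: purified HLA class II protein incubated two to four days with a radiolabeled reference binder and test peptide at six concentrations over a 100,000-fold range, complex-bound radioactivity counted.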
In the next series the target is T1, DPA10103-DPB10301 (Homo sapiens, UniProt P04440+P20036, A65V/A84D/A85E/E86D/F38Y/G113D/G114E/G40L/I94L/L37V/M105V/M116V/P115A/R125K/T199I).
T1 sequence (P20036 29-260): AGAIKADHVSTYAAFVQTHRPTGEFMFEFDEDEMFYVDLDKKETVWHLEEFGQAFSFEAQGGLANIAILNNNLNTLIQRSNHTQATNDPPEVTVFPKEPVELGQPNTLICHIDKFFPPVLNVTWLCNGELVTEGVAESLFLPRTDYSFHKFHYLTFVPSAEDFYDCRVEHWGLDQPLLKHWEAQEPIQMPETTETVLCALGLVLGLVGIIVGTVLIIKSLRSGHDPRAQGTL
T1 sequence (P04440 30-258 L37V/F38Y/G40L/A65V/A84D/A85E/E86D/I94L/M105V/G113D/G114E/P115A/M116V/R125K/T199I/V234M): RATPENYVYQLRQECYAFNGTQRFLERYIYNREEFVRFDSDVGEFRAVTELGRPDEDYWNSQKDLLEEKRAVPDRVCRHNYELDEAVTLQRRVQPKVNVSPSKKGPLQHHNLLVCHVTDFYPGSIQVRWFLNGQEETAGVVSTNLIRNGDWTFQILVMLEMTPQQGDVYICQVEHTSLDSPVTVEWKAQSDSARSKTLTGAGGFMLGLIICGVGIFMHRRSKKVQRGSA
Briefly: Competitive MHC class II binding assay, DPA10103-DPB10301.

In the next series the target is DRB1_0802 (Homo sapiens, UniProt P01903+P01911, A100R/A103L/A169T/F76Y/H45Y/I96F/K41T/L162R/M171V/P40S/Q125H/Q178H/Q39Y/Q99D/R218S/R42G/S66Y/V115G/W38E). Put plainly: Competitive MHC class II binding assay, DRB1_0802.
In the next series the target is DRB1_1101 (Homo sapiens, UniProt P01903+P01911, A100R/A169T/A87E/I96F/K41T/L162R/M171V/P40S/Q125H/Q178H/Q39Y/Q99D/R42S/S66Y/T262R/V115G/W38E). Briefly: Competitive MHC class II binding assay, DRB1_1101.
Another series deals with DRB1_0401 (Homo sapiens, UniProt P01903+P01911, A100K/A169T/F76Y/I96L/K127E/L162R/M171V/N62H/P40V/Q125Y/R42H/S133A/S149N/S66Y/V115G/V209L/W38E). Briefly: Competitive MHC class II binding assay, DRB1_0401.
The target of a further series is T2, DPA10103-DPB10201 (Homo sapiens, UniProt P04440+P20036, A65V/A84D/A85E/K98E).
T2 sequence (P20036 29-260): T1 sequence (P20036 29-260)
T2 sequence (P04440 30-258 A65V/A84D/A85E/K98E): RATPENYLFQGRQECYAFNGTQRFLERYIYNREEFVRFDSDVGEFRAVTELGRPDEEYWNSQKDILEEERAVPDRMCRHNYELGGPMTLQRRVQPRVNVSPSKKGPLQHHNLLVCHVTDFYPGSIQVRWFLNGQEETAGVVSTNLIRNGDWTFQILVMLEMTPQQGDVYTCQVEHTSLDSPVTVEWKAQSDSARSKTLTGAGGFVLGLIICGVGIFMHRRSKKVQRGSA
Briefly: Competitive MHC class II binding assay, DPA10103-DPB10201.

Another series deals with DRB1_0901 (Homo sapiens, UniProt P01903+P01911, A100R/A103E/D57H/D86V/F55Y/F60I/F76Y/I96F/K127E/L162R/M171V/P40D/Q125H/Q99R/R33Q/R42F/S133A/S66N/T210M/V115G/W38K/Y107V/Y59G/Y89S). Put plainly: Competitive MHC class II binding assay, DRB1_0901.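 Note: displacement of a radiolabeled probe peptide from purified HLA class II protein, bound counts read after two to four days incubation, six concentrations spanning 100,000-fold, unlabeled probe as reference.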
For the next series, the target named is DRB1_0701 (Homo sapiens, UniProt P01903+P01911, A100R/A102G/A103Q/D57E/D86V/E43K/F76Y/K127E/L162R/M171V/P40G/Q125H/Q99D/R33Q/R42Y/R54Q/S133A/S66F/T210M/V115G/Y107V/Y59L/Y89S). Put plainly: Competitive MHC class II binding assay, DRB1_0701.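 Note: displacement of a radiolabeled reference peptide from purified HLA class II protein, with complex-bound radioactivity counted after 2–4 days of incubation and six concentrations spanning a 100,000-fold range.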
The next series concerns the target DRB1_0405 (Homo sapiens, UniProt P01903+P01911, A100R/A169T/D86S/F76Y/I96L/K127E/L162R/M171V/N62H/P40V/Q125Y/R42H/S133A/S149N/S66Y/V115G/V209L/W38E). Put plainly: Competitive MHC class II binding assay, DRB1_0405.
A further series addresses DRB1_1501 (Homo sapiens, UniProt P01903+P01911). Put plainly: Competitive MHC class II binding assay, DRB1_1501.
The next series addresses DRB5_0101 (Homo sapiens, UniProt P01903+Q30154). Briefly: Competitive MHC class II binding assay, DRB5_0101.
In another series the test system is DQA10401-DQB10402. Briefly: Competitive MHC class II binding assay, DQA10401-DQB10402.
In a further series the target is DRB3_0202 (Homo sapiens, UniProt P01903+P79483, A212P/D57E/F66Y/L67A/R103Q/R218S/R40L/S89Y/T80R/V86D/Y55F/Y59H). Put plainly: Competitive MHC class II binding assay, DRB3_0202.
A short description of series [1]: Solubility of peptides in aqueous solutions at different pH (visual inspection, OD, HPLC). In kind it is physicochemical. The following applies: pH 7, visual inspection. From the text: This example describes modifications of parent peptides to improve the aqueous solubility, in particular to increase the solubility in an aqueous solution having pH in a physiologically acceptable range, e.g. from 6 to 8. Solubility is closely related to the ratio between hydrophilic and hydrophobic amino acid residues and the net charge state of the peptide. Peptides have zero net charge at pH=pI, and would be expected to show the lowest solubility at this pH. […] The solubility of these peptides was increased at pH values outside the physiological range (data not shown).
Peptides were tested for their ability to dissolve in aqueous solutions at different pH values. In short, each of the peptides were dissolved in water (pH about 5-6), hydrochloride solution at pH 2 (10 mM HCl), acetate buffer with pH 5 (20 mM acetate and 140 mM sodium chloride), phosphate buffer with pH 7 (20 mM phosphate and 140 mM sodium chloride) or bistrispropate buffer with pH 9 (20 mM bitrispropane and 140 mM sodium chloride, respectively, to produce a final molar concentration of the peptide of about 0.25 mM or 1 mM. Optionally, about 20% DMSO may be part of the solution. For comparison reasons, peptides were also dissolved in acetonitrile or DMSO. The solutions were inspected visually before and after centrifugation for turbidity, presence of particles/aggregates. In addition, presence of turbidity/particles/aggregates were detected by optical density (OD), but might also be detected by size-exclusion chromatography. Sub-visual particles may also be detected by dynamic light scattering (DLS) analysis. The solubility and stability of each peptide were also investigated using HPLC, e.g. RP-HPLC. For example, each of the solutions were injected onto the HPLC and the peak height or peak area of each of the peptides were compared to the corresponding peptide of a chromatogram of peptides dissolved in acetonitrile or DMSO—as peptides were assumed to be fully dissolved and stable in these solvents.

For another series, the target named is DQA10102-DQB10602. Briefly: Competitive MHC class II binding assay, DQA10102-DQB10602. The following applies: read-out: HLA-DQA10102-DQB10602; positive binding at cutoff 1000 nM.
A further series has as its target DRB3_0101 (Homo sapiens, UniProt P01903+P79483). Put plainly: Competitive MHC class II binding assay, DRB3_0101.
In the next series the target is DQA10501-DQB10201 (Homo sapiens, UniProt P01909+P01920, A45G/A70V/D89A/E106A/E77G/E98D/H199R/L107V/N214S/P84L/P87L/T103K/T109R/T172A/T60S/V78E/V99I/Y58L/Y62S/Y69I/Y79F). Put plainly: Competitive MHC class II binding assay, DQA10501-DQB10201.

No end group written: not given here. Where only a bound is given, the exact number is not on record here.

Turning to “DLRQMRTVTPIRMQGGSGS [HDM203B, reference compound]”, the IC50 at DRB1_1201, on DRB1_0301, at DRB1_0101, on DRB4_0101, on DRB1_1302 and on DPA10103-DPB10301 was below 1 µM throughout. For the same sequence, the IC50 at DRB1_0802, on DRB1_1101, at DRB1_0401, at DPA10103-DPB10201, at DRB1_0901 and at DRB1_0701 was below 1 µM throughout. Further, the IC50 on DRB1_0405, at DRB1_1501 and on DRB5_0101 was below 1 µM each time.
As for IEYIQQNGVVEERSYPYVAR [pep-075], in the series with DQA10401-DQB10402 (as shown in Table 16a), the “binding to HLA Class II allele DQA10401-DQB10402” value is reported as “binds to at least the same alleles as peptide 041”. Further, the IC50 at DQA10401-DQB10402 (read-out: HLA-DQA10401-DQB10402, positive binding at cutoff 1000 nM) is below 1 µM; at DRB1_1201 it was below 1 µM; on DRB1_0301, below 1 µM; on DRB3_0202 it was below 1 µM; at DRB1_0101, below 1 µM; at DRB1_1302, below 1 µM. Also, the IC50 on DQA10102-DQB10602, on DRB3_0101, on DRB1_0405 and at DQA10501-DQB10201 was below 1 µM throughout. For the same sequence, the “binding to HLA Class II allele DRB3_0202” value at DRB3_0202 (as shown in Table 16a) is listed as “binds to at least the same alleles as peptide 041”. The “binding to HLA Class II allele DRB1_1302” value at DRB1_1302 (as shown in Table 16a) is given as “binds to at least the same alleles as peptide 041”. In [1], the “Solubility at pH 7 (visual inspection)” value was “Turbid”. The “binding to HLA Class II allele DRB3_0101” value on DRB3_0101 (as shown in Table 16a) is listed as “binds to at least the same alleles as peptide 041”. The “binding to HLA Class II allele DQA10501-DQB10201” value on DQA10501-DQB10201 (as shown in Table 16a) is “binds to at least the same alleles as peptide 041”.
Turning to QESYYRYVAREQSSRR [pep-122], the IC50 on DRB1_1201, on DRB3_0202, on DRB1_0101, on DPA10103-DPB10301, on DRB1_0802 and at DRB1_1101 was below 1 µM each time. Also, the IC50 on DRB1_0401, at DRB1_0901, on DRB1_0701, at DRB1_0405 and at DRB5_0101 was below 1 µM throughout.
